# Measurements as given in patent US12350350B2, “Hyperpolarisation in aqueous media via sabre” (UNIVERSITY OF YORK, priority 2017, dated 2025).
# Columns and labels:
# [1] = Solubility in water and organic solvent (stated); details: for solubility in organic solvent: CD3Cl or CD2Cl2
# [2] = UV monitoring of pz transfer from aqueous phase into chloroform, with and without NaCl; format: physicochemical; details: H2O layered over equivalent volume of CHCl3
# Procedure: Relative rates of pz transfer from the aqueous phase into chloroform were assessed, with, and without NaCl, by UV monitoring as detailed in Figure S100. This involved layering a sample of H2O containing pyrazine over an equivalent volume of CHCl3 that contained no pz.
# [3] = UV-vis quality control: catalyst in the aqueous phase after phase separation; format: physicochemical; details: UV spectrum 10 seconds after mixing, no signal seen
# Procedure: A UV spectrum was recorded to monitor the amount of catalyst present in the aqueous phase 10 seconds after mixing. As detailed in Figure S98 no signal is seen which places an upper limit of 1.5×10^−6 mol dm^−3 on the iridium concentration based on [Ir(H)2(IMes)(pz)3]Cl. The sample used mimicked that of 5.1.
Molecule,solubility in organic solvent [1],solubility in water / D2O [1],also measured
Fc1cccnc1 [3-fluoropyridine],highly soluble in organic solvent,–,–
Nc1ccncc1 [4-aminopyridine],–,fully water soluble,–
[2H]c1cc([2H])c(C(=O)OC)cn1 [d2-methylnicotinate],fully soluble in CD3Cl phase,partially soluble in D2O phase,–
[2H]c1cc([2H])c(C(N)=O)cn1 [d2-nicotinamide],partially soluble in organic solvent,full water soluble,–
c1cnccn1 [pyrazine],–,–,"rate of transfer between the phases, effect of NaCl [2]: increase the rate of pz transfer between the phases; relative partitioning between aqueous phase and chloroform, effect of NaCl [2]: unaffected by added NaCl"
[Ir(H)2(IMes)(pz)3]Cl,–,–,upper limit on iridium concentration in the aqueous phase [3]: ≤ 1.5×10^−6 mol dm^−3
